ChEMBL document CHEMBL1268974, “Synthesis and antitumour activity of glycyrrhetinic acid derivatives” (Bioorg Med Chem, 2010)

Experiments:
Format in all cases: functional, cell-based
A549 = assay: Cytotoxicity against human A549 cells after 96 hrs by SRB assay; conditions: Homo sapiens, A549, 96 h
[1] = Cytotoxicity against human A253 cells after 96 hrs by SRB assay; conditions: Homo sapiens, A253, 96 h
8505C = assay: Cytotoxicity against human 8505C cells after 96 hrs by SRB assay; conditions: Homo sapiens, 8505C, 96 h
[2] = Cytotoxicity against human Lipo cells after 96 hrs by SRB assay; conditions: Homo sapiens, Lipo, 96 h
DLD-1 = assay: Cytotoxicity against human DLD1 cells after 96 hrs by SRB assay; conditions: Homo sapiens, DLD-1, 96 h
SW-1736 = assay: Cytotoxicity against human SW1736 cells after 96 hrs by SRB assay; conditions: Homo sapiens, SW-1736, 96 h
MCF7 = assay: Cytotoxicity against human MCF7 cells after 96 hrs by SRB assay; conditions: Homo sapiens, MCF7, 96 h
A2780 = assay: Cytotoxicity against human A2780 cells after 96 hrs by SRB assay; conditions: Homo sapiens, A2780, 96 h

SMILES | IC50 (A549) | IC50 [1] | IC50 (8505C) | IC50 [2] | IC50 (DLD-1) | IC50 (SW-1736) | IC50 (MCF7) | IC50 (A2780)
COC(=O)[C@@]1(C)CC[C@]2(C)CC[C@]3(C)C(=CC(=O)[C@@H]4[C@@]5(C)CC[C@H](OC(=O)CCN)C(C)(C)[C@@H]5CC[C@]43C)[C@@H]2C1 | 2.4 µM | 2.5 µM | 2.55 µM | 2.52 µM | 2.51 µM | 1.82 µM | 2.5 µM | 1.72 µM
CC(C)OC(=O)[C@@]1(C)CC[C@]2(C)CC[C@]3(C)C(=CC(=O)[C@@H]4[C@@]5(C)CC[C@H](OC(=O)CN)C(C)(C)[C@@H]5CC[C@]43C)[C@@H]2C1 | 2.65 µM | 2.01 µM | 2.76 µM | 2.74 µM | 2.54 µM |  |  | 2.24 µM
CC1(C)[C@@H](OC(=O)CN)CC[C@]2(C)[C@H]3C(=O)C=C4[C@@H]5C[C@@](C)(C(=O)OCc6ccccc6)CC[C@]5(C)CC[C@@]4(C)[C@]3(C)CC[C@@H]12 | 5.07 µM | 5.03 µM | 4.79 µM | 4.81 µM | 4.54 µM |  |  | 3.54 µM
CC(C)OC(=O)[C@@]1(C)CC[C@]2(C)CC[C@]3(C)C(=CC(=O)[C@@H]4[C@@]5(C)CC[C@H](OC(=O)CCN)C(C)(C)[C@@H]5CC[C@]43C)[C@@H]2C1 | 1.78 µM | 2.68 µM | 1.96 µM | 3.49 µM | 3.52 µM |  |  | 1.31 µM
CC1(C)[C@@H](OC(=O)CCN)CC[C@]2(C)[C@H]3C(=O)C=C4[C@@H]5C[C@@](C)(C(=O)OCc6ccccc6)CC[C@]5(C)CC[C@@]4(C)[C@]3(C)CC[C@@H]12 | 2.76 µM | 3.05 µM | 3.19 µM | 3.25 µM | 4.54 µM |  |  | 1.73 µM
CC1(C)[C@@H](OC(=O)CCN)CC[C@]2(C)[C@H]3C(=O)C=C4[C@@H]5C[C@@](C)(C(=O)O)CC[C@]5(C)CC[C@@]4(C)[C@]3(C)CC[C@@H]12 | > 30 µM | > 30 µM | > 30 µM | > 30 µM | > 30 µM |  |  | > 30 µM
CC1(C)[C@@H](OC(=O)CN)CC[C@]2(C)[C@H]3C(=O)C=C4[C@@H]5C[C@@](C)(C(=O)O)CC[C@]5(C)CC[C@@]4(C)[C@]3(C)CC[C@@H]12 | > 30 µM | > 30 µM | > 30 µM | > 30 µM | > 30 µM |  |  | > 30 µM
C[C@H](N)C(=O)O[C@H]1CC[C@]2(C)[C@H]3C(=O)C=C4[C@@H]5C[C@@](C)(C(=O)OCc6ccccc6)CC[C@]5(C)CC[C@@]4(C)[C@]3(C)CC[C@H]2C1(C)C | 3.51 µM | 3.49 µM | 3.1 µM | 3.57 µM | 5.02 µM |  |  | 2.85 µM
CCOC(=O)[C@@]1(C)CC[C@]2(C)CC[C@]3(C)C(=CC(=O)[C@@H]4[C@@]5(C)CC[C@H](OC(=O)CCN)C(C)(C)[C@@H]5CC[C@]43C)[C@@H]2C1 | 2.18 µM | 2.23 µM | 2.32 µM | 2.38 µM | 2.74 µM |  |  | 1.77 µM
C[C@H](N)C(=O)O[C@H]1CC[C@]2(C)[C@H]3C(=O)C=C4[C@@H]5C[C@@](C)(C(=O)O)CC[C@]5(C)CC[C@@]4(C)[C@]3(C)CC[C@H]2C1(C)C | > 30 µM | > 30 µM | > 30 µM | > 30 µM | > 30 µM |  |  | > 30 µM
CCOC(=O)[C@@]1(C)CC[C@]2(C)CC[C@]3(C)C(=CC(=O)[C@@H]4[C@@]5(C)CC[C@H](OC(=O)CN)C(C)(C)[C@@H]5CC[C@]43C)[C@@H]2C1 | 5.39 µM | 3.59 µM | 5.32 µM | 4.32 µM | 5.61 µM |  |  | 3.9 µM
